Source: US20230365541A1, “INHIBITOR OF ENHANCER OF ZESTE HOMOLOGUE 2, AND USE THEREOF” (HAISCO PHARMACEUTICALS PTE. LTD., priority 2020, published 2023)
Where two headings read alike, the source gives them in different places. Each block holds one compound with its values, some of them ahead of it.

How the values were obtained:
SU-DHL-6 cells = assay: SU-DHL-6 cell proliferation test; type: cell-based, human; details: incubated for 14 days
Description: SU-DHL-6 cells are human B-cell lymphoma cell lines purchased from ATCC and cultured under the following conditions: RPMI-1640+10% FBS+1% double antibody in a 37° C., 5% CO2 incubator. The cells were plated in a 12-well plate, with a cell concentration of 1×10^5 cells/mL. After the cells were plated, the compounds at different concentrations were added and cultured in a 37° C., 5% CO2 incubator. The cells were counted every 3-4 days (Countstar automated cell counter), centrifuged to remove the supernatant, re-diluted to 1×10^5 cells/mL and plated, and then the compounds at different concentrations were further added. After the mixture was incubated for 14 days and the cells were counted, the test was terminated, and the IC50 values were calculated by using the Origen9.2 software.

EZH2 = EZH2 (Homo sapiens (Human), UniProt Q15910); assay: Test method for EZH2 enzyme activity; type: biochemical; details: H3K27(21-44) and [3H]-SAM
Description: The compounds were dissolved in DMSO, formulated into 10 mM solutions and serially diluted with DMSO to obtain 100-fold the final concentration. 200 nL of the solutions of the compounds was transferred to a 384-well plate (Perkin Elmer, Cat. No. 6007299) by using Echo550. EZH2 (BPS, Cat. No. 51004) was diluted with 1×assay buffer (50 mM Tris-HCl 9.0, 0.01% Tween-20, 1 mM DTT) to 2-fold the final concentration (EZH2: 3 nM). A mixed solution of H3K27(21-44) and [3H]-SAM (PerkinElmer, Lot. No. 2146246) (H3K27(21-44): 200 nM, [3H]-SAM: 100 nM) was formulated. The EZH2 diluted solution was taken and added to the 384-well plate at 10 μL/well (10 μL of 1×assay buffer was added in the control group). The plate was sealed and then incubated at room temperature for 15 minutes. 10 μL of the mixed solution of H3K27 (21-44) and [3H]-SAM was added to each well. The plate was sealed and then incubated at room temperature for 60 minutes. 50 μM of SAM (Sigma, Cat. No. A7007) was formulated at low temperature and added to the 384-well plate at 10 μL/well. The sample was taken at 25 μL/well, transferred to a flashplate and incubated at room temperature for at least 1 hour. The flashplate was washed 3 times with a plate washing liquid (dH2O+0.1% Tween-20) and read by using Microbeta. The inhibition rate was calculated in Excel according to: inhibition rate (%)=(maximum valuepositive control−detection signal value)/(maximum valuepositive control−minimum valuenegative control)*100, and IC50 values were fitted by using XL-Fit.

[1] = Pharmacokinetic experiment in mice (intravenous 5 mg/kg or intragastric 30 mg/kg); type: in vivo
Description: The administration was performed according to table 5.
The concentrations of the compounds in EDTA-K2 anticoagulant plasma were determined by the LC-MS/MS method. The linear range of the standard curve of the compounds is 2-2000 ng/mL. After subjected to precipitating proteins with acetonitrile, the samples were analyzed by LC-MS/MS. The standard curve was subjected to a regression calculation using the weighted least square method (W=1/X^2), and quantified by calculating the ratio of test compound peak area to internal standard peak area.
• (1) except to the blank sample, 400 μL of internal standard working solution (Verapamil internal standard concentration in precipitant acetonitrile is 10.0 ng/mL) was added to a 1.5 mL centrifuge tube containing 30 μL of standard curve samples and quality control samples; • 200 μL of internal standard working solution (Verapamil internal standard concentration in precipitant acetonitrile is 10.0 ng/mL) was added to a 1.5 mL centrifuge tube containing 15 μL of unknown samples; • and 400 μL of acetonitrile was added to the blank sample; • (2) the mixture was mixed evenly for about 1 min in a vortex mixer; • (3) centrifugation was carried out at 10000 rpm at 4C for 10 mi; • (4) 175 μL of the supernatant was transferred to a new 96-well polypropylene plate, and then the plate was sealed and placed in a 10° C. sample tray for injection.

[2] = ICR mice, PO 30 mg/kg, listed as Compound 53, Isomer 1
[3] = ICR mice, IV 5 mg/kg, listed as Compound 53, Isomer 2
[4] = ICR mice, PO 30 mg/kg, listed as Compound 53, Isomer 2
[5] = ICR mice, IV 5 mg/kg, listed as Compound 44, Isomer 2
[6] = ICR mice, PO 30 mg/kg, listed as Compound 44, Isomer 2

Sequence of EZH2 (Q15910 other isoform, or with tags, fused parts or gaps isoform Q15910-2): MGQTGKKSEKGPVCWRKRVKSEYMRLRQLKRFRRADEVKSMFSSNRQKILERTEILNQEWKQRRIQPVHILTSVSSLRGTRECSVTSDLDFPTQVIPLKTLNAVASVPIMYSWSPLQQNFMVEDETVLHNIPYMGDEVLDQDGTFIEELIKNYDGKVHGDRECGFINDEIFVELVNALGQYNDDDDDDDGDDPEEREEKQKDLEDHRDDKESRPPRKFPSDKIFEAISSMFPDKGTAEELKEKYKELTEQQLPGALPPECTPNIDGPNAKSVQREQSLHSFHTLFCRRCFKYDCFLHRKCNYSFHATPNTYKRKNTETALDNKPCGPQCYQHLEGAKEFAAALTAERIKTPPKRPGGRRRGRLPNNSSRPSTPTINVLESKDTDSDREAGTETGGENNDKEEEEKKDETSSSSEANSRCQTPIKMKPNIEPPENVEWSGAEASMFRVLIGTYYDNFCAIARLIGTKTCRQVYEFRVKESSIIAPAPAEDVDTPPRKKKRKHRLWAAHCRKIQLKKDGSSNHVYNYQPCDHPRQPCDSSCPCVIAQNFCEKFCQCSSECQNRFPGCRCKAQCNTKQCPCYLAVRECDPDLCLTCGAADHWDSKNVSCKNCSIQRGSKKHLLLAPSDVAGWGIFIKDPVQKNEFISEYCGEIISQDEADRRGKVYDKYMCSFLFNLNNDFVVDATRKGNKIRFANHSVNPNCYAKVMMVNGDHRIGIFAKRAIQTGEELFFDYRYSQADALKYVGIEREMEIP
Sequence of EZH2 (O75530 2-441 partner): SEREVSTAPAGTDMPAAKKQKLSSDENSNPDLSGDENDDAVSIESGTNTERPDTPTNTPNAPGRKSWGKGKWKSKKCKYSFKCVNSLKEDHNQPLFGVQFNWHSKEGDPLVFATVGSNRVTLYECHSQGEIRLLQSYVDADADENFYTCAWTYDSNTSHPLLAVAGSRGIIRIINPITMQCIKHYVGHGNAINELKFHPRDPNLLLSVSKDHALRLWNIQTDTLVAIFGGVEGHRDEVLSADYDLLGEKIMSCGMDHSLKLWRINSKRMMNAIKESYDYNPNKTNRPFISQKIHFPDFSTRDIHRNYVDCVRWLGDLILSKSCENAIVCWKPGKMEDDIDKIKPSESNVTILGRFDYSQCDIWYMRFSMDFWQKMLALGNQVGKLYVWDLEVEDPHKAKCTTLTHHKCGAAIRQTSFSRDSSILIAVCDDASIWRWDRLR
Sequence of EZH2 (Q15022 2-739 partner): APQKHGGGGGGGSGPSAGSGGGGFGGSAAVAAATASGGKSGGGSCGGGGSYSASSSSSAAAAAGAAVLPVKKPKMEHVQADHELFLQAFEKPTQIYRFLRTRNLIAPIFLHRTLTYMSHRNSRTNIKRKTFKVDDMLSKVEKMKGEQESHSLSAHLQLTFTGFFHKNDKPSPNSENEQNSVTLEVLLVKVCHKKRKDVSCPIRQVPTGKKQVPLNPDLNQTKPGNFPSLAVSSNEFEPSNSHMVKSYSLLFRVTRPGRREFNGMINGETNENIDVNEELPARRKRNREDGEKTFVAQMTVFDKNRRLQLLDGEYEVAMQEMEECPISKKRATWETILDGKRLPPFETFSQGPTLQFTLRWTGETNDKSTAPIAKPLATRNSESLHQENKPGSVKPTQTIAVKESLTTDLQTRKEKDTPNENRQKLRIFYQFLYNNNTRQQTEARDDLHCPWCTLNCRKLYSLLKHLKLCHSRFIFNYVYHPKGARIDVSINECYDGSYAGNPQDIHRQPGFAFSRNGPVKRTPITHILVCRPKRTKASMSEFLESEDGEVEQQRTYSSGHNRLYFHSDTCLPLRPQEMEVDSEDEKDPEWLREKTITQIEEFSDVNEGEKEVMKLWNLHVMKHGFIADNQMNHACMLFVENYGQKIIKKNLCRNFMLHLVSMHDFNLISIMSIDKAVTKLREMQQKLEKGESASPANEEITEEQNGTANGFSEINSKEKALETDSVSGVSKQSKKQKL
Sequence of EZH2 (Q09028 2-425 partner): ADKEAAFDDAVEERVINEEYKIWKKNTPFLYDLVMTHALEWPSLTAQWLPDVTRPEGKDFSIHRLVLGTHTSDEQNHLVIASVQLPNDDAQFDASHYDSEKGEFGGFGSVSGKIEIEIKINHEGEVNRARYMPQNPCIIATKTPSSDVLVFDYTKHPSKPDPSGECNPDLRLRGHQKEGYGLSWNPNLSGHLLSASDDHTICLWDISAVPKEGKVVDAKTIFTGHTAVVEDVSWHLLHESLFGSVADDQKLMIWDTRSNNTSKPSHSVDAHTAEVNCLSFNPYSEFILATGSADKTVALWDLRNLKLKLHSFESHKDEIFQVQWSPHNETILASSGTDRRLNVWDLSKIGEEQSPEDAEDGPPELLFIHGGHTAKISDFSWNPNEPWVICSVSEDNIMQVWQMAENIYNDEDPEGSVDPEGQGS
Sequence of EZH2 (Q6ZN18 whole entry partner): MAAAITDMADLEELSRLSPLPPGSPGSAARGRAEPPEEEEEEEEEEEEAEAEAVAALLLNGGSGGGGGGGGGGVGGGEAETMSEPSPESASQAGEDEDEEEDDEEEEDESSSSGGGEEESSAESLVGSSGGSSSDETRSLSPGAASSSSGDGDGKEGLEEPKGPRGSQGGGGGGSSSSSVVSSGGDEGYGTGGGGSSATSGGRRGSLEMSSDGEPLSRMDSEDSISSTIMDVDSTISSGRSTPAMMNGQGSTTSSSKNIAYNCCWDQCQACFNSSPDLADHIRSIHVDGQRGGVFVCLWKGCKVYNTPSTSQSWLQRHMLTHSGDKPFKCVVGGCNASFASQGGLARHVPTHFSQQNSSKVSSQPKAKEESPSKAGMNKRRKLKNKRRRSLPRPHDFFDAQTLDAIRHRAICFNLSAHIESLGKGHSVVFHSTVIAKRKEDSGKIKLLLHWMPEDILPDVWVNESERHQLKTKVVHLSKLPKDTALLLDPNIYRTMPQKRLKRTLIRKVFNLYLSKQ

SMILES: CNS(=O)(=O)N1CCC(C2(C)Oc3c(Cl)cc(C(=O)NCc4c(SC)cc(C)[nH]c4=O)c(C)c3O2)CC1 (centres unmarked) [Compound 26, 7-chloro-2,4-dimethyl-N-((6-methyl-4-(methylthio)-2-oxo-1,2-dihydropyridin-3-yl)methyl)-2-(1-(N-methylsulfamoyl)piperidin-4-yl)benzo[d][1,3]dioxole-5-carboxamide]
- IC50 (SU-DHL-6 cells; Homo sapiens, SU-DHL-6, 336 h): 63.2 nM
- IC50 (EZH2): 0.52 nM

SMILES: [2H]C([2H])(NC(=O)c1cc(Cl)c2c(c1C)OC(C)(C1CCC(N[C@H]3C[C@H](F)C3)CC1)O2)c1c(SC)cc(C)[nH]c1=O (single isomer, unassigned) [Compound 53, isomer 1, 7-chloro-2-(4-((trans-3-fluorocyclobutyl)amino)cyclohexyl)-2,4-dimethyl-N-((6-methyl-4-(methylthio)-2-oxo-1,2-dihydropyridin-3-yl)methyl-d2)benzo[d][1,3]dioxole-5-carboxamide]
- IC50 (EZH2): 0.33 nM
- Cmax [1, 2]: 1025 ng/mL
- T1/2 [1, 2]: 1.10 h
- Tmax [1, 2]: 0.500 h
- half-life ([1]; male, ICR, mouse, plasma, iv, 5 mg/kg, IV 5 mg/kg): 72.6 min
- AUC ([1]; male, ICR, mouse, plasma, iv, 5 mg/kg, IV 5 mg/kg, read-out: AUC): 703 ng·h/mL
- C0 ([1]; male, ICR, mouse, plasma, iv, 5 mg/kg, IV 5 mg/kg, read-out: C0): 2360 ng/mL
- bioavailability ([1]; male, ICR, mouse, plasma, po, 30 mg/kg, PO 30 mg/kg vs IV 5 mg/kg): 47.9%
- AUC ([1]; male, ICR, mouse, plasma, po, 30 mg/kg, PO 30 mg/kg, read-out: AUC): 2020 ng·h/mL

SMILES: CSc1cc(C)[nH]c(=O)c1CNC(=O)c1cc(Cl)c2c(c1C)OC(C)(C1CCN(CC3CCC3)CC1)O2 (centres unmarked) [Compound 37, 7-chloro-2-(1-(cyclobutylmethyl)piperidin-4-yl)-2,4-dimethyl-N-((6-methyl-4-(methylthio)-2-oxo-1,2-dihydropyridin-3-yl)methyl)benzo[d][1,3]dioxole-5-carboxamide]
- IC50 (SU-DHL-6 cells; Homo sapiens, SU-DHL-6, 336 h): 32.1 nM
- IC50 (EZH2): 0.44 nM

SMILES: [2H]C([2H])(NC(=O)c1cc(Cl)c2c(c1C)OC(C)([C@H]1CC[C@@H](N3CC4COCC4C3)CC1)O2)c1c(SC)cc(C)[nH]c1=O (single isomer, unassigned) [Compound 60, isomer 1, 7-chloro-2,4-dimethyl-N-((6-methyl-4-(methylthio)-2-oxo-1,2-dihydropyridin-3-yl)methyl-d2)-2-(4-(tetrahydro-1H-furo[3,4-c]pyrrol-5(3H)-yl)cyclohexyl)benzo[d][1,3]dioxole-5-carboxamide]
- IC50 (SU-DHL-6 cells): 58.6 nM
- IC50 (EZH2): 0.18 nM

SMILES: CSc1cc(C)[nH]c(=O)c1CNC(=O)c1cc(Cl)c2c(c1C)OC(C)([C@H]1CC[C@@H](N3CC[Si](C)(C)CC3)CC1)O2 (single isomer, unassigned) [Compound 49, isomer 2, 7-chloro-2-(4-(4,4-dimethyl-1,4-azasilinan-1-yl)cyclohexyl)-2,4-dimethyl-N-((6-methyl-4-(methylthio)-2-oxo-1,2-dihydropyridin-3-yl)methyl)benzo[d][1,3]dioxole-5-carboxamide]
- IC50 (SU-DHL-6 cells; Homo sapiens, SU-DHL-6, 336 h): 38.9 nM
- IC50 (EZH2): 0.32 nM

SMILES: [2H]C([2H])(NC(=O)c1cc(Cl)c2c(c1C)OC(C)(C1CCC(N[C@H]3C[C@H](F)C3)CC1)O2)c1c(SC)cc(C)[nH]c1=O (single isomer, unassigned) [Compound 53, isomer 2, 7-chloro-2-(4-((trans-3-fluorocyclobutyl)amino)cyclohexyl)-2,4-dimethyl-N-((6-methyl-4-(methylthio)-2-oxo-1,2-dihydropyridin-3-yl)methyl-d2)benzo[d][1,3]dioxole-5-carboxamide]
- AUC [1, 3]: 954 ng·h/mL
- C0 [1, 3]: 2665 ng/mL
- T1/2 [1, 3]: 1.87 h
- F % ([1]; ICR mice, PO 30 mg/kg vs IV 5 mg/kg, listed as Compound 53, Isomer 2): 38.4%
- AUC [1, 4]: 2201 ng·h/mL
- Cmax [1, 4]: 476 ng/mL
- T1/2 [1, 4]: 4.51 h
- Tmax [1, 4]: 4.00 h

SMILES: [2H]C([2H])(NC(=O)c1cc(Cl)c2c(c1C)OC(C)([C@H]1CC[C@@H](NC3CC(F)(F)C3)CC1)O2)c1c(SC)cc(C)[nH]c1=O (single isomer, unassigned) [Compound 44, isomer 2, 7-chloro-2-(4-((3,3-difluorocyclobutyl)amino)cyclohexyl)-2,4-dimethyl-N-((6-methyl-4-(methylthio)-2-oxo-1,2-dihydropyridin-3-yl)methyl-d2)benzo[d][1,3]dioxole-5-carboxamide]
- IC50 (EZH2): 0.51 nM
- AUC [1, 5]: 713 ng·h/mL
- C0 [1, 5]: 2482 ng/mL
- T1/2 [1, 5]: 2.33 h
- F % ([1]; ICR mice, PO 30 mg/kg vs IV 5 mg/kg, listed as Compound 44, Isomer 2): 27.4%
- AUC [1, 6]: 917 ng·h/mL
- Cmax [1, 6]: 463 ng/mL
- T1/2 [1, 6]: 1.81 h
- Tmax ([1]; male, ICR, mouse, plasma, po, 30 mg/kg, PO 30 mg/kg, read-out: Tmax): 1 h

SMILES: CSc1cc(C)[nH]c(=O)c1CNC(=O)c1cc(Cl)c2c(c1C)OC(C)([C@H]1CC[C@@H](N3CC4CN(C)CC4C3)CC1)O2 (single isomer, unassigned) [Compound 42, isomer 1, 7-chloro-2,4-dimethyl-N-((6-methyl-4-(methylthio)-2-oxo-1,2-dihydropyridin-3-yl)methyl)-2-(4-(5-methylhexahydropyrrolo[3,4-c]pyrrol-2(1H)-yl)cyclohexyl)benzo[d][1,3]dioxole-5-carboxamide]
- IC50 (EZH2): 0.34 nM

The remaining lines, values ahead:

- IC50 (SU-DHL-6 cells; Homo sapiens, SU-DHL-6, 336 h): 77.9 nM
- IC50 (EZH2): 0.44 nM
SMILES: COC(=O)N1CCC(C2(C)Oc3c(Cl)cc(C(=O)NCc4c(SC)cc(C)[nH]c4=O)c(C)c3O2)CC1 (centres unmarked) [Compound 29, methyl-4-(7-chloro-2,4-dimethyl-5-(((6-methyl-4-(methylthio)-2-oxo-1,2-dihydropyridin-3-yl)methyl)carbamoyl)benzo[d][1,3]dioxol-2-yl)piperidine-1-carboxylate]

- IC50 (SU-DHL-6 cells): 27.1 nM
- IC50 (EZH2): 0.57 nM
SMILES: CSc1cc(C)[nH]c(=O)c1CNC(=O)c1cc(Cl)c2c(c1C)OC(C)([C@H]1CC[C@@H](N[C@H]3C[C@H](F)C3)CC1)O2 (single isomer, unassigned) [Compound 34, isomer 2, 7-chloro-2-(4-((trans-3-fluorocyclobutyl)amino)cyclohexyl)-2,4-dimethyl-N-((6-methyl-4-(methylthio)-2-oxo-1,2-dihydropyridin-3-yl)methyl)benzo[d][1,3]dioxole-5-carboxamide]

- IC50 (EZH2): 0.92 nM
SMILES: CSc1cc(C)[nH]c(=O)c1CNC(=O)c1cc(Cl)c2c(c1C)OC(C)([C@H]1CC[C@@H](C(=O)N3CC(F)(F)C3)CC1)O2 (single isomer, unassigned; isomer 2) [Compound 47, isomer 2, 7-chloro-2-(4-(3,3-difluoroazetidine-1-carbonyl)cyclohexyl)-2,4-dimethyl-N-(di-deuterated(6-methyl-4-(methylthio)-2-oxo-1,2-dihydropyridin-3-yl)di-deuterated-methyl)benzo[d][1,3]dioxole-5-carboxamide]

- IC50 (EZH2): 0.74 nM
SMILES: CSc1cc(C)[nH]c(=O)c1CNC(=O)c1cc(Cl)c2c(c1C)OC(C)(C1CCN(C3CC(F)(F)C3)CC1)O2 (single isomer, unassigned) [Compound 12, isomer 1, 7-chloro-2-(1-(3,3-difluorocyclobutyl)piperidin-4-yl)-2,4-dimethyl-N-((6-methyl-4-(methylthio)-2-oxo-1,2-dihydropyridin-3-yl)methyl)benzo[d][1,3]dioxole-5-carboxamide]
